From patent US20230233567A1, “BELVARAFENIB FOR USE IN CANCER TREATMENT” (Hanmi Pharm. Co., Ltd., priority 2020, published 2023)
Like-named read-outs stand apart in the source and are kept apart here.

Assay: Phase I study plasma pharmacokinetics
Format: in vivo, human
Details: human, plasma; for AUC(0-inf) / AUC(0-t) / Cmax / AUC / Vd/F: mean; for AUC: read-out: AUC24; for Vd/F: read-out: Vz/F; for half-life: read-out: median t1/2 at steady state
Text: The PK parameters of belvarafenib were estimated in 48 patients in the dose-escalation phase and 35 patients in the dose-expansion phase. In the tables: “AUClast” refers to the area under the plasma concentration-time curve from zero time until the last measurable concentration; “AUC0-∞” refers to area under the plasma concentration-time curve from zero time to infinity; “AUC24” refers to the area under the curve from T0 to T24; “Cmax” refers to the maximal concentration; “Tmax” refers to the time to reach Cmax; “T1/2β” refers to the terminal elimination half-life; “QD” refers to once a day; and “BID” refers to twice a day. […] Mean and coefficient of variation are presented except for Tmax where median and range are presented. One patient in the 200 QD dosing regimen who took concomitant rifampin was removed from the analysis because the AUC and Cmax of the patient were much lower than those of the others in the same cohort, which, without being bound to any particular theory, could have resulted from the drug-metabolizing enzyme induction by rifampin through which belvarafenib is biotransformed.

[1] = oral, 600 mg/day, Multiple administrations Day 22, 600 mg/day QD, n=6
[2] = oral, 900 mg/day, Multiple administrations Day 22, 900 mg/day BID, n=7
[3] = oral, 1300 mg/day, Multiple administrations Day 22, 1300 mg/day BID, n=6
[4] = oral, 1600 mg/day, Multiple administrations Day 22, 1600 mg/day BID, n=4
[5] = po, 50 mg/day QD, Day 1 first dose, 50 mg/day QD, n=3
[6] = po, 100 mg/day QD, Day 1 first dose, 100 mg/day QD, n=3
[7] = po, 200 mg, Day 1 first dose, 200 mg/day QD, n=6
[8] = po, 200 mg/day QD, Day 1 first dose, 200 mg/day QD, n=7
[9] = po, 400 mg/day BID, Day 1 first dose, 400 mg/day BID, n=11
[10] = po, 600 mg/day BID, Day 1 first dose, 600 mg/day BID, n=7
[11] = po, 600 mg/day, Day 1 first dose, 600 mg/day BID, n=7
[12] = po, 600 mg/day, Day 1 first dose, 600 mg/day QD, n=6
[13] = po, 900 mg/day, Day 1 first dose, 900 mg/day BID, n=8
[14] = po, 1300 mg/day, Day 1 first dose, 1300 mg/day BID, n=6
[15] = po, 1600 mg/day, Day 1 first dose, 1600 mg/day BID, n=6

SMILES: Cc1ccc2c(Nc3cccc(Cl)c3F)nccc2c1NC(=O)c1csc2c(N)ncnc12 [Belvarafenib]
- AUC(0-inf) [1]: 434000 ng·h/mL
- AUC(0-t) [1]: 57600 ng·h/mL
- Cmax [1]: 3130 ng/mL
- AUC [1]: 58000 ng·h/mL
- Vd/F [1]: 241 L
- Tmax (oral, 600 mg/day, Multiple administrations Day 22, 600 mg/day QD, n=6, median, read-out: Tmax): 4.1 h
- AUC(0-inf) [2]: 322000 ng·h/mL
- AUC(0-t) [2]: 126000 ng·h/mL
- Cmax [2]: 6090 ng/mL
- AUC [2]: 127000 ng·h/mL
- Vd/F [2]: 148 L
- Tmax (oral, 900 mg/day, Multiple administrations Day 22, 900 mg/day BID, n=7, median, read-out: Tmax): 2.9 h
- AUC(0-inf) [3]: 625000 ng·h/mL
- AUC(0-t) [3]: 158000 ng·h/mL
- Cmax [3]: 7320 ng/mL
- AUC [3]: 159000 ng·h/mL
- Vd/F [3]: 195 L
- Tmax (oral, 1300 mg/day, Multiple administrations Day 22, 1300 mg/day BID, n=6, median, read-out: Tmax): 2 h
- AUC(0-inf) [4]: 139000 ng·h/mL
- AUC(0-t) [4]: 49200 ng·h/mL
- Cmax [4]: 2360 ng/mL
- AUC [4]: 49600 ng·h/mL
- Vd/F [4]: 871 L
- Tmax (oral, 1600 mg/day, Multiple administrations Day 22, 1600 mg/day BID, n=4, median, read-out: Tmax): 5.5 h
- Tmax (oral, BID regimens, read-out: Single-dose median Tmax): 15.5 to 24 h
- half-life (oral, BID regimens): 32.3 to 66.4 h
- Tmax (oral, QD regimens, read-out: Single-dose median Tmax): 3 to 4.5 h
- half-life (oral, QD regimens): 65.1 to 106 h
- AUC(0-inf) [5]: 27000 ng·h/mL
- Cmax [5]: 553 ng/mL
- Vd/F [5]: 186 L
- Tmax (po, 50 mg/day QD, Day 1 first dose, 50 mg/day QD, n=3, median, read-out: Tmax): 3 h
- AUC(0-t) (po, 50 mg/day, Day 1 first dose, 50 mg/day QD, n=3): 13000 ng·h/mL
- AUC(0-inf) [6]: 51500 ng·h/mL
- Cmax [6]: 807 ng/mL
- Vd/F [6]: 215 L
- Tmax (po, 100 mg/day QD, Day 1 first dose, 100 mg/day QD, n=3, median, read-out: Tmax): 3 h
- AUC(0-t) (po, 100 mg/day, Day 1 first dose, 100 mg/day QD, n=3): 45000 ng·h/mL
- AUC(0-inf) [7]: 37800 ng·h/mL
- AUC(0-t) [7]: 28800 ng·h/mL
- Cmax [7]: 602 ng/mL
- Vd/F [7]: 529 L
- Tmax (po, 200 mg, Day 1 first dose, 200 mg/day QD, n=6, median, read-out: Tmax): 4.4 h
- AUC(0-inf) [8]: 32800 ng·h/mL
- Cmax [8]: 549 ng/mL
- Vd/F [8]: 550 L
- Tmax (po, 200 mg/day QD, Day 1 first dose, 200 mg/day QD, n=7, median, read-out: Tmax): 4.1 h
- AUC(0-t) (po, 200 mg/day, Day 1 first dose, 200 mg/day QD, n=7): 25100 ng·h/mL
- AUC(0-inf) [9]: 78300 ng·h/mL
- Cmax [9]: 900 ng/mL
- Vd/F [9]: 758 L
- Tmax (po, 400 mg/day BID, Day 1 first dose, 400 mg/day BID, n=11, median, read-out: Tmax): 6.9 h
- AUC(0-t) (po, 400 mg/day, Day 1 first dose, 400 mg/day BID, n=11): 62300 ng·h/mL
- AUC(0-inf) [10]: 169000 ng·h/mL
- AUC(0-t) [10]: 121000 ng·h/mL
- AUC(0-t) (po, 600 mg/day QD, Day 1 first dose, 600 mg/day QD, n=6): 71100 ng·h/mL
- Cmax [11]: 1210 ng/mL
- Vd/F [11]: 884 L
- Tmax (po, 600 mg/day, Day 1 first dose, 600 mg/day BID, n=7, median, read-out: Tmax): 24 h
- AUC(0-inf) [12]: 84700 ng·h/mL
- Cmax [12]: 1320 ng/mL
- Vd/F [12]: 798 L
- Tmax (po, 600 mg/day, Day 1 first dose, 600 mg/day QD, n=6, median, read-out: Tmax): 4.5 h
- AUC(0-inf) [13]: 177000 ng·h/mL
- Cmax [13]: 1590 ng/mL
- Vd/F [13]: 534 L
- Tmax (po, 900 mg/day, Day 1 first dose, 900 mg/day BID, n=8, median, read-out: Tmax): 17 h
- AUC(0-t) (po, 1300 mg/day BID, Day 1 first dose, 1300 mg/day BID, n=6): 156000 ng·h/mL
- AUC(0-inf) [14]: 225000 ng·h/mL
- Cmax [14]: 1790 ng/mL
- Vd/F [14]: 708 L
- Tmax (po, 1300 mg/day, Day 1 first dose, 1300 mg/day BID, n=6, median, read-out: Tmax): 15.5 h
- AUC(0-t) (po, 1600 mg/day BID, Day 1 first dose, 1600 mg/day BID, n=6): 134000 ng·h/mL
- AUC(0-inf) [15]: 336000 ng·h/mL
- Cmax [15]: 1440 ng/mL
- Vd/F [15]: 1700 L
- Tmax (po, 1600 mg/day, Day 1 first dose, 1600 mg/day BID, n=6, median, read-out: Tmax): 20.4 h
